Data set [1] concerns Ba/F3 CD74-ROS1 non mutant. The data set can be described thus: Antiproliferation assay (Alamar Blue, 72 h). It is filed as cell-based, mouse. As to conditions: Mus musculus, BaF3, 72 h, Ba/F3 cells, cell growth inhibition.
The subject of another data set is Ba/F3 ROS1-G2032R. The data set can be described thus: Antiproliferation assay. It is filed as cell-based, mouse. To be noted: Mus musculus, BaF3; Ba/F3 cells, cell growth inhibition, 72 h.
The next data set deals with ROS1. The data set can be described thus: ROS1 degradation in Ba/F3 cells (WES immunoblotting). It is filed as cell-based. To be noted: for DC50: concentration needed to reduce ROS1 protein by 50%, Ba/F3 cells; for Dmax (%) (ROS1): maximal degradation of ROS1 in Ba/F3 cells. The method in brief:
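ROS1 and phospho-ROS1 (Tyr2274/2334) in Ba/F3 lysates quantified by capillary immunoassay (WES) with chemiluminescent detection, duplicate experiments. Levels expressed as AUC of the chemiluminescence peak.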

The nature of another data set: Log P measurement. It is filed as physicochemical. From the text:
An important physicochemical property for a PROTAC molecule is its lipophilicity that largely dictates its pharmaceutical performance such as absorption, permeability, and distribution.

Data set [2] can be described thus: Metabolic stability in rat microsomes. It is filed as in vitro ADME. As to conditions: rat, pooled rat microsomes, pH 7.4, 250 nM compound, NADPH, 37 °C. As to the method: (§1) Pooled human and rat microsomes were prepared and stored at −80 °C prior to use. A master-mix containing microsome, phosphate buffer, and test compound (9 series) solution was made as follows: (1) 3 μL of microsome (20 mg/mL) was diluted with mixed 30 μL of potassium phosphate buffer (pH 7.4; 10×) and 246 μL of water; (2) 3 μL of 25 μM drug solution was added to the microsome; (3) the master solution was prewarmed at 37 °C for 5 min. NADPH solution A (15 μL) and NADPH solution B (3 μL) from Promega were added to the above-mentioned master solution to initiate the reaction. The final concentration of 9 compounds in the reaction system was 250 nM. An aliquot of 20 μL was pipetted from the reaction solution and stopped by the addition of 180 μL of cold MeCN containing 25 ng of Tamoxifen-(N,N-dimethyl-13C2)-15N as an internal standard at the designated time points (0, 5, 15, 30, 45, and 60 min). The incubation solution was vortexed-mixed (800 rpm/10 min) and centrifuged at 3500 rpm for 10 min to precipitate proteins. The supernatant was collected and used for the LC/MS/MS analysis. The natural log of the remaining percentage of the test compound was plotted against time and the gradient of the line was determined.

Data set [3] is described as follows: Metabolic stability in human microsomes. As to conditions: human, pooled human microsomes, pH 7.4, 250 nM compound, NADPH, 37 °C. The format is in vitro ADME. On the procedure: as §1
Data set [4] in a line: Pharmacokinetics study in Sprague–Dawley rats. It is filed as in vivo. To be noted: Sprague-Dawley [Crl: CD (SD)], plasma, rat. On the procedure:
Four to 6 weeks old Sprague–Dawley rats [Crl: CD (SD)] (SPF/VAF) were purchased from Charles River (Wilmington MA). Animals were quarantined/acclimated for 2–6 weeks prior to dose initiation. Sprague–Dawley rats were given oral administration of test compounds (20% PG, 5% Solutol, and 75% of 20% HP-β-CD in water) at different dose levels. After treatment with the compounds, whole blood was collected from each study animal by puncture of the tail vein (0.4 mL of whole blood from rats) into tubes containing K2EDTA at each time point. The plasma samples were divided into 2 aliquots (approximately equal in volume) and stored frozen at −75 ± 15 °C within 2 h of the collection until analysis.
The stock solution of the test compound (0.01 M) in DMSO was prepared and stored at −20 ± 5 °C. The desired serial concentrations of working reference analyte solutions were achieved by diluting a stock analyte solution with 50% acetonitrile (0.1% formic acid) in water solution. The bioanalytical LC–MS/MS method was developed for quantitative determination of each test compound in Sprague–Dawley rat plasma with acceptable selectivity, sensitivity, calibration curve, precision, and accuracy. The analytical method is applicable for the determination of test compounds in Sprague–Dawley rat plasma with a lower limit of quantification of 10.0 ng/mL and an upper limit of quantification of 5000 ng/mL. Five microliters of diluted supernatant was injected into the LC–MS/MS system (TSQ Quantis) and a SynergiTM 4 μm Fusion-RP 80 Å (50 × 2 mm) column using gradient elution and a Triple Quad mass spectrometer) for quantitative analysis. The mobile phases used were 0.1% formic acid in deionized water and 0.1% formic acid in acetonitrile. The pharmacokinetic parameters T1/2 (the biological half-life), Cmax (maximal concentration), Tmax (time at which Cmax is observed), and AUC (area under the plasma concentration–time curve) were calculated from the plasma concentration versus time data using WinNonlin (PhoenixTM, version 8.1, Mountain View, CA, USA).

The source of these data is article PMC11513893, “Discovery of Oral Degraders of the ROS1 Fusion Protein with Potent Activity against Secondary Resistance Mutations” (Journal of Medicinal Chemistry, 2024).

The structures appear in SMILES notation. Where two headings read alike, the source gives them in different places.

By IC50 is commonly meant the concentration that gives 50% inhibition. By DC50 is commonly meant the concentration giving 50% degradation. Low readings indicate a more potent degrader, high ones a less potent degrader. One may read the logP as a log measure of how a compound divides between an organic and an aqueous phase. Read a low logP as lower lipophilicity. One may read the microsomal CLint as the rate of metabolic loss divided by the concentration. Read a low microsomal CLint as greater metabolic stability. The term AUC denotes the area under the concentration-time curve, a measure of exposure. By Cmax is commonly meant the highest concentration seen after dosing. In general, bioavailability refers to dose-corrected exposure relative to a reference, in per cent. The Tmax is the time at which the peak concentration occurs. For the compound `COc1cc(N2CCN(CC3CCN(c4ccc5c(c4)C(=O)N(C4CCC(=O)NC4=O)C5=O)CC3)CC2)ccc1Nc1ncc(Cl)c(Nc2ccccc2P(C)(C)=O)n1` (centres unmarked) [9c, 5-(4-((4-(4-((5-Chloro-4-((2-(dimethylphosphoryl)phenyl)amino)pyrimidin-2-yl)amino)-3-methoxyphenyl)piperazin-1-yl)methyl)piperidin-1-yl)-2-(2,6-dioxopiperidin-3-yl)isoindoline-1,3-dione], the IC50 in data set [1] is 19 ± 8 nM; with Ba/F3 ROS1-G2032R it was 236 ± 28 nM. In the data set with ROS1, this compound registered a DC50 of 22 nM. For the same compound, the “Dmax (%) (ROS1)” value in the data set on ROS1 came to 95%. The compound further showed a logP in the data set “Log P measurement” of 2.35. The microsomal CLint at 1 h, 0.25 µM in data set [2] was 77 µL/min/mg; in data set [3], 87 µL/min/mg. In addition, the half-life at 1 h, 0.25 µM in data set [2] (read-out: metabolic stability in rat microsomes T1/2) is 0.3 h; in data set [3] (read-out: metabolic stability in human microsomes T1/2), 0.663 h. The AUC in data set [4] (2 mg/kg iv, read-out: AUC (iv)) stood at 29400 ng·h/mL; in data set [4] (10 mg/kg po, read-out: AUC (po)), 31700 ng·h/mL. Further, the highest concentration (Cmax) at 24 h in data set [4] (10 mg/kg po) came out at 2340 ng/mL. Further, in data set [4] (10 mg/kg po), the half-life is 6.81 h. Moreover, the bioavailability in data set [4] (10 mg/kg po vs 2 mg/kg iv) is 21.6%. Besides, in data set [4] (10 mg/kg po, read-out: Tmax), the Tmax is 3 h.

As to `COc1cc(N2CCC(N3CCN(CC4CCN(c5ccc(C(=O)NC6CCC(=O)NC6=O)cc5)CC4)CC3)CC2)ccc1Nc1ncc(Cl)c(Nc2ccccc2P(C)(C)=O)n1` (centres unmarked) [9r, 4-(4-((4-(1-(4-((5-Chloro-4-((2-(dimethylphosphoryl)phenyl)amino)pyrimidin-2-yl)amino)-3-methoxyphenyl)piperidin-4-yl)piperazin-1-yl)methyl)piperidin-1-yl)-N-(2,6-dioxopiperidin-3-yl)benzamide], the midpoint of inhibition in data set [1], the IC50, lay at 120 ± 39 nM. The IC50 in the data set on Ba/F3 ROS1-G2032R was greater than 10000 nM. Besides, in the data set with ROS1, half-maximal degradation (DC50) was put at 123 nM and the “Dmax (%) (ROS1)” value is reported as 28%.

`COc1cc(N2CCC(N3CCN(C(=O)CN4CCN(c5ccc(NC6CCC(=O)NC6=O)cc5)CC4)CC3)CC2)ccc1Nc1ncc(Cl)c(Nc2ccccc2P(C)(C)=O)n1` (centres unmarked) [9s, 3-((4-(4-(2-(4-(1-(4-((5-Chloro-4-((2-(dimethylphosphoryl)phenyl)amino)pyrimidin-2-yl)amino)-3-methoxyphenyl)piperidin-4-yl)piperazin-1-yl)-2-oxoethyl)piperazin-1-yl)phenyl)amino)piperidine-2,6-dione]: the IC50 was 75 ± 9 nM in data set [1] and greater than 10000 nM in the data set with Ba/F3 ROS1-G2032R. In the data set on ROS1, this compound displayed a DC50 of 84 nM. Besides, the “Dmax (%) (ROS1)” value in the data set with ROS1 was 40%.

`COc1cc(N2CCC(N3CCN(CCC4CCN(c5ccc(NC6CCC(=O)NC6=O)cc5)CC4)CC3)CC2)ccc1Nc1ncc(Cl)c(Nc2ccccc2P(C)(C)=O)n1` (centres unmarked) [9t, 3-((4-(4-(2-(4-(1-(4-((5-Chloro-4-((2-(dimethylphosphoryl)phenyl)amino)pyrimidin-2-yl)amino)-3-methoxyphenyl)piperidin-4-yl)piperazin-1-yl)ethyl)piperidin-1-yl)phenyl)amino)piperidine-2,6-dione] yielded an IC50 in data set [1] of 61 ± 3 nM. The IC50 in the data set on Ba/F3 ROS1-G2032R is greater than 10000 nM. In the data set on ROS1, the DC50 was determined as 56 nM and the “Dmax (%) (ROS1)” value stood at 45%.

With `COc1cc(N2CCC(N3CCN(C(=O)CC4CCN(c5ccc(NC6CCC(=O)NC6=O)cc5)CC4)CC3)CC2)ccc1Nc1ncc(Cl)c(Nc2ccccc2P(C)(C)=O)n1` (centres unmarked) [9u, 3-((4-(4-(2-(4-(1-(4-((5-Chloro-4-((2-(dimethylphosphoryl)phenyl)amino)pyrimidin-2-yl)amino)-3-methoxyphenyl)piperidin-4-yl)piperazin-1-yl)-2-oxoethyl)piperidin-1-yl)phenyl)amino)piperidine-2,6-dione], in data set [1], the IC50 was 82 ± 9 nM. Also, the IC50 in the data set on Ba/F3 ROS1-G2032R was greater than 10000 nM. Further, in the data set with ROS1, the DC50 amounted to 101 nM and the “Dmax (%) (ROS1)” value was found to be 37%.

Turning to `COc1cc(N2CCC(N3CCN(C(=O)C4CCN(c5ccc(NC6CCC(=O)NC6=O)cc5)CC4)CC3)CC2)ccc1Nc1ncc(Cl)c(Nc2ccccc2P(C)(C)=O)n1` (centres unmarked) [9v, 3-((4-(4-(4-(1-(4-((5-Chloro-4-((2-(dimethylphosphoryl)phenyl)amino)pyrimidin-2-yl)amino)-3-methoxyphenyl)piperidin-4-yl)piperazine-1-carbonyl)piperidin-1-yl)phenyl)amino)piperidine-2,6-dione], inhibition in data set [1] was half-maximal at 63 ± 24 nM (IC50). The IC50 with Ba/F3 ROS1-G2032R was greater than 10000 nM. For the same compound, in the data set on ROS1, the DC50 came to 76 nM and the “Dmax (%) (ROS1)” value is 42%.
